We go through four compounds from ChEMBL document CHEMBL1135863, “Antitumor agents. Part 215: antitubulin effects of cytotoxic B-ring modified allocolchicinoids” (Bioorg Med Chem Lett, 2002).

The subject of one assay is 1A9. In words: Cytotoxicity against ovarian cancer cell line (1A-9) of humans was determined. It is filed as functional, cell-based. The note with it: Homo sapiens.
The subject of assay [1] is KB. In words: The compound was tested for its cytotoxic concentration required to inhibit the replication of human tumor nasopharynx (KB) cell lines. The class given is functional, cell-based.
The subject of assay [2] is A9. In words: Cytotoxicity against Beta- tubulin mutant expressing […] cell line of humans was tested. The class given is functional, cell-based. The settings on record: Homo sapiens.
For assay [3], the system named is KB. In words: The compound was tested for its cytotoxic concentration required to inhibit the replication of human tumor nasopharynx (KB-VIN) cell lines which is drug resistant. It is filed as functional, cell-based.
The subject of assay [4] is A9. As to the kind of experiment: Percentage inhibition at higher concentration (100 nM) against Beta- tubulin mutant expressing […] cell line. The class given is functional, Homo sapiens.

A value given as a limit tells only on which side of the number the result lay.

For `COc1ccc2c(c1)C=CCc1cc(OC)c(OC)c(OC)c1-2`, the IC50 in the assay on 1A9 was 60 nM; with KB [1], 60 nM; in the assay on A9 [2], 78 nM; in the assay with KB [3], 68 nM.
As for `COc1cc2c(c(OC)c1OC)-c1ccc(OC)c(=O)cc1[C@@H](NC(C)=O)CC2` [COLCHICINE], the IC50 in the assay with 1A9 is 11.9 nM; in the assay on KB [1], 11.9 nM; in the assay with A9 [2], 13.8 nM; in the assay with KB [3] it was over 100 nM.
In the assay with A9 [4], `COc1ccc2c(c1)[C@@H]1O[C@@H]1Cc1cc(OC)c(OC)c(OC)c1-2` showed an inhibition at 0.1 µM of 17%. Further, the IC50 is 82 nM with 1A9, 62 nM in the assay with KB [1], over 100 nM in the assay with A9 [2] and 62 nM with KB [3].
On to `COc1ccc2c(c1)[C@@H](NC(=O)CCl)CCc1cc(OC)c(OC)c(OC)c1-2`, for which the IC50 with 1A9 amounted to 2.7 nM; with KB [1] it was 12 nM; in the assay on A9 [2], 13.8 nM; with KB [3] it was 9.1 nM.
